According to patent US7030162B2, “Treatment of migraine headache” (POZEN Inc., priority 1996, dated 2006):
Structures can show the parent of a compound that is named as a salt.

Tests used:
[1] = cited from earlier work; for half-life: pharmacokinetic half-life; for time of peak plasma concentrations: after oral dosing, normal subjects
[2] = human, in vivo
Procedure: Twenty-four healthy volunteers (14 females and 10 males), aged 20–55 years, received each of the four treatments. […] Standard pharmacokinetic parameters were calculated, including maximum plasma concentrations over the entire sampling phase (Cmax), time to attain maximal plasma concentrations (Tmax), and area under the plasma concentration-time curve (AUCI-time 0 to infinity).

[3] = naproxen sodium: water of neutral pH; cited from earlier work
migraine patients = assay: Earlier phase II study of metoclopramide on pain variables; assay type: in vivo, human

CCc1cccc2c3c([nH]c12)C(CC)(CC(=O)O)OCC3 (stereo not shown) [etodolac]
half-life [1]: about 7 hours

CC(C(=O)O)c1ccc(-c2ccccc2)c(F)c1 (stereo not shown) [flurbiprofen]
half-life [1]: about 6 hours

Cc1ccc(-c2cc(C(F)(F)F)nn2-c2ccc(S(N)(=O)=O)cc2)cc1 [celecoxib]
time to peak plasma levels ([1]; in vivo): approximately 3 hours | half-life [1]: approximately 11 hours

Cc1ccc(Cl)c(Nc2ccccc2C(=O)O)c1Cl [meclofenamate]
time to peak plasma levels ([1]; in vivo): 0.5 to 1 h

O=C(c1ccccc1)c1ccc2n1CCC2C(=O)O (stereo not shown) [ketorolac]
half-life [1]: 8 to 9 h

Cc1cccc(Nc2ccccc2C(=O)O)c1C [mefenamic acid]
half-life [1]: up to 4 hours

CC(C(=O)O)c1cccc(C(=O)c2ccccc2)c1 (stereo not shown) [ketoprofen]
time to peak plasma levels ([1]; in vivo): one-half to 2

CCN(CC)CCNC(=O)c1cc(Cl)c(N)cc1OC [Metoclopramide hydrochloride, metoclopramide hydrochloride]
tolerability [2]: well tolerated | solubility in water [3]: freely soluble | effect on pain variables (migraine patients): without significant effect

CC(=O)Nc1ccc(O)cc1 [acetaminophen]
time of peak plasma concentrations [1]: about 1 hour

O=C(O)CCc1nc(-c2ccccc2)c(-c2ccccc2)o1 [oxaprozin]
half-life [1]: 42 to 50 h

CC(=O)Oc1ccccc1C(=O)O [aspirin]
time of peak plasma concentrations [1]: about 1 hour | plasma half life ([1]; in vivo): very short

COc1ccc2cc([C@H](C)C(=O)O)ccc2c1 [naproxen]
tolerability [2]: well tolerated
